Test results as given in the supplement of paper PMC10307832.

Assays:
Test in all cases: relative viability (nuclei count vs DMSO), 5 days (fraction); higher = more cells survive
[1] = compound: CN(c1ncccc1CNc1nc(Nc2ccc3c(c2)CC(=O)N3)ncc1C(F)(F)F)S(C)(=O)=O + CC1(C)CCC(c2ccc(Cl)cc2)=C(CN2CCN(c3ccc(C(=O)NS(=O)(=O)c4ccc(N[C@H](CCN5CCOCC5)CSc5ccccc5)c(S(=O)(=O)C(F)(F)F)c4)cc3)CC2)C1 [Navitoclax] (partner 0.5 µM)
In short: (§1)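 Nuclei were stained with Hoechst during a one-step fixation (final 0.05% Triton X-100, 1% formaldehyde, 1 ug/ml Hoechst) carried out 5 days after dosing, then counted on 4× images. The cells, lung cancer lines in 1536-well plates, had been dosed by pin tool the day after seeding with one drug alone or a fixed anchor-drug dose plus five library-drug doses (not always all listed) in √10 steps. Relative viability is the nuclei count in treated wells divided by that in vehicle wells, and each value is the median of duplicate plates.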

[2] = compound: CN(c1ncccc1CNc1nc(Nc2ccc3c(c2)CC(=O)N3)ncc1C(F)(F)F)S(C)(=O)=O + CCNC(=O)c1noc(-c2cc(C(C)C)c(O)cc2O)c1-c1ccc(CN2CCOCC2)cc1 [Luminespib] (partner 0.01 µM)
In short: as §1

[3] = compound: CN(c1ncccc1CNc1nc(Nc2ccc3c(c2)CC(=O)N3)ncc1C(F)(F)F)S(C)(=O)=O + COc1cc2c(Oc3ccc(NC(=O)C4(C(=O)Nc5ccc(F)cc5)CC4)cc3F)ccnc2cc1OCCCN1CCOCC1 [Foretinib] (partner 0.25 µM)
In short: as §1

[4] = compound: CN(c1ncccc1CNc1nc(Nc2ccc3c(c2)CC(=O)N3)ncc1C(F)(F)F)S(C)(=O)=O + C[C@]1(O)C[C@@H](c2nc(-c3ccc4ccc(-c5ccccc5)nc4c3)c3c(N)nccn32)C1 [Linsitinib] (partner 1 µM)
In short: as §1

Row | Cell Line | relative viability ([1]; first compound 0.01 µM) | relative viability ([1]; first compound 0.03162 µM) | relative viability ([1]; first compound 0.1 µM) | relative viability ([1]; first compound 0.3162 µM) | relative viability ([1]; first compound 1 µM) | relative viability ([2]; first compound 0.01 µM) | relative viability ([2]; first compound 0.03162 µM) | relative viability ([2]; first compound 0.1 µM) | relative viability ([2]; first compound 0.3162 µM) | relative viability ([2]; first compound 1 µM) | relative viability ([3]; first compound 0.01 µM) | relative viability ([3]; first compound 0.03162 µM) | relative viability ([3]; first compound 0.1 µM) | relative viability ([3]; first compound 0.3162 µM) | relative viability ([3]; first compound 1 µM) | relative viability ([4]; first compound 0.01 µM) | relative viability ([4]; first compound 0.03162 µM) | relative viability ([4]; first compound 0.1 µM) | relative viability ([4]; first compound 0.3162 µM) | relative viability ([4]; first compound 1 µM)
1 | NCI-H1651 | 1.07 | 1 | 1.21 | 0.867 | 0.976 | 1.03 | 0.957 | 0.708 | 0.688 | 0.667 | 0.817 | 0.88 | 0.906 | 0.765 | 0.784 | 0.996 | 0.999 | 1.25 | 0.994 | 0.993
2 | NCI-H1666 | 1.1 | 0.986 | 0.906 | 0.795 | 0.57 | 0.936 | 0.939 | 0.923 | 0.786 | 0.612 | 0.977 | 0.874 | 0.851 | 0.976 | 0.843 | 0.814 | 0.816 | 0.943 | 0.72 | 0.612
3 | NCI-H1734 | 0.894 | 0.937 | 0.824 | 0.866 | 0.707 | 0.198 | 0.178 | 0.184 | 0.227 | 0.18 | 0.93 | 0.911 | 0.796 | 0.828 | 0.712 | 0.939 | 1.01 | 0.796 | 0.966 | 0.751
4 | NCI-H1755 | 1.01 | 1.03 | 0.972 | 0.94 | 0.875 | 0.531 | 0.41 | 0.479 | 0.389 | 0.419 | 0.88 | 0.983 | 0.9 | 0.832 | 0.833 | 0.997 | 0.951 | 0.961 | 0.979 | 0.908
5 | NCI-H1793 | 0.407 | 0.562 | 0.498 | 0.377 | 0.303 | 0.218 | 0.181 | 0.212 | 0.175 | 0.138 | 0.58 | 0.641 | 0.667 | 0.449 | 0.523 | 0.883 | 0.929 | 0.894 | 0.857 | 0.601
6 | NCI-H1915 | 0.803 | 0.849 | 0.786 | 0.765 | 0.728 | 0.821 | 0.636 | 0.711 | 0.729 | 0.729 | 1.13 | 1.06 | 1.04 | 1.12 | 1.04 | 1.1 | 1.1 | 0.983 | 1.1 | 1.02
7 | NCI-H1944 | 0.984 | 1.06 | 1.11 | 1 | 1.11 | 0.779 | 0.926 | 0.818 | 0.732 | 0.828 | 0.771 | 0.941 | 0.87 | 0.938 | 0.79 | 1.22 | 1.18 | 1.16 | 1.13 | 1.28
8 | NCI-H1975 | 1.01 | 1.12 | 1.11 | 1.01 | 0.854 | 0.243 | 0.259 | 0.239 | 0.389 | 0.194 | 0.962 | 0.984 | 0.959 | 0.84 | 0.929 | 1.01 | 1.22 | 1.02 | 0.925 | 0.821
9 | NCI-H1993 | 0.822 | 0.892 | 0.998 | 0.911 | 0.9 | 0.859 | 0.849 | 0.752 | 0.755 | 0.65 | 0.692 | 0.994 | 0.744 | 0.75 | 0.767 | 0.678 | 0.727 | 0.78 | 0.771 | 0.736
10 | NCI-H2009 | 1.12 | 1.16 | 1.13 | 1.1 | 1.07 | 1.04 | 1.02 | 1.03 | 0.683 | 0.948 | 1.17 | 1.22 | 1.27 | 1.27 | 0.965 | 1.14 | 1.18 | 1.18 | 1.24 | 1.09
11 | NCI-H2023 | 0.998 | 1.1 | 0.985 | 0.938 | 0.837 | 0.696 | 0.79 | 0.597 | 0.643 | 0.611 | 0.791 | 0.715 | 0.731 | 0.752 | 0.642 | 0.765 | 0.714 | 0.73 | 0.71 | 0.631
12 | NCI-H2085 | 1.09 | 1.17 | 1.13 | 1.19 | 0.934 | 0.394 | 0.681 | 0.457 | 0.418 | 0.36 | 0.878 | 0.925 | 0.906 | 0.824 | 0.748 | 0.925 | 0.981 | 0.895 | 0.842 | 0.776
13 | NCI-H2087 | 1.06 | 1.12 | 1.05 | 1.04 | 0.937 | 0.164 | 0.239 | 0.162 | 0.185 | 0.185 | 1.04 | 1.03 | 1.02 | 1.2 | 0.974 | 1.03 | 1.04 | 1.14 | 1.16 | 0.99
14 | NCI-H2126 | 0.838 | 0.893 | 0.849 | 0.894 | 0.776 | 0.905 | 0.9 | 0.778 | 0.941 | 0.761 | 1.34 | 1.13 | 1.06 | 1.19 | 1.08 | 0.698 | 0.776 | 0.714 | 0.721 | 0.7
15 | NCI-H2228 | 0.732 | 1.18 | 0.783 | 0.755 | 0.741 | 0.144 | 0.23 | 0.0915 | 0.182 | 0.103 | 1 | 0.995 | 0.749 | 0.927 | 0.811 | 0.502 | 0.286 | 0.627 | 1.06 | 0.929
16 | NCI-H2347 | 0.879 | 0.69 | 0.699 | 0.701 | 0.592 | 0.643 | 0.557 | 0.243 | 0.592 | 0.389 | 0.612 | 0.992 | 1.1 | 0.555 | 0.616 | 0.938 | 0.98 | 0.852 | 0.947 | 0.817
17 | NCI-H2405 | 0.802 | 0.993 | 0.66 | 0.705 | 0.679 | 0.791 | 0.723 | 0.622 | 0.464 | 0.52 | 1.02 | 1.07 | 0.976 | 0.886 | 0.82 | 0.899 | 0.935 | 0.818 | 0.865 | 0.824
18 | NCI-H3122 | 1.07 | 1.01 | 0.941 | 0.977 | 0.936 | 0.0983 | 0.101 | 0.0795 | 0.0863 | 0.0795 | 1.01 | 0.876 | 0.916 | 0.902 | 0.929 | 1.02 | 1.06 | 0.939 | 0.966 | 0.843
19 | PC-3 [JPC-3] | 0.821 | 0.863 | 0.823 | 0.833 | 0.787 | 0.719 | 0.788 | 0.792 | 0.665 | 0.636 | 1.07 | 1.03 | 0.999 | 1.04 | 0.929 | 0.984 | 1.01 | 0.938 | 0.925 | 0.835
20 | PC-14 | 1.02 | 1.16 | 1.03 | 1.01 | 1.04 | 0.233 | 0.15 | 0.192 | 0.176 | 0.236 | 1.01 | 1.04 | 1.01 | 1.07 | 1 | 0.976 | 1 | 1.06 | 0.961 | 1.01
21 | RERF-LC-KJ | 0.966 | 1.05 | 0.862 | 0.956 | 0.693 | 1.16 | 1.34 | 1.17 | 1.28 | 1.19 | 0.867 | 1.03 | 0.861 | 0.843 | 0.939 | 0.838 | 0.964 | 0.877 | 0.83 | 0.933
22 | SK-LU-1 | 0.878 | 0.841 | 0.735 | 0.766 | 0.768 | 0.197 | 0.208 | 0.214 | 0.172 | 0.209 | 0.823 | 0.845 | 0.712 | 0.815 | 0.61 | 0.936 | 1.12 | 0.966 | 1.02 | 0.97
23 | SK-MES-1 | 1.3 | 1.18 | 1.21 | 1.2 | 0.97 | 0.782 | 0.813 | 0.809 | 0.788 | 0.673 | 0.905 | 0.919 | 0.817 | 1.01 | 0.868 | 1.04 | 1.06 | 1.08 | 0.925 | 1.01
24 | SW 1573 | 1.22 | 0.973 | 0.988 | 0.896 | 1.07 | 0.726 | 0.195 | 0.289 | 0.311 | 0.189 | 0.961 | 0.856 | 0.884 | 1.16 | 0.975 | 0.926 | 0.635 | 0.754 | 0.863 | 0.867
25 | UMC-11 | 0.321 | 0.296 | 0.313 | 0.297 | 0.235 | 0.928 | 0.998 | 0.97 | 1.11 | 0.924 | 0.972 | 1.14 | 0.953 | 1.01 | 0.823 | 0.979 | 1.02 | 1.03 | 0.952 | 0.781
